Results: patent publication US20240293367A1, “METHODS OF TREATING DISORDERS WITH A […]” (Cybin IRL Limited, priority 2023, published 2024)

System: participants with MDD
Assay: MADRS total score, response, remission and relapse in MDD participants (Phase I/IIa study)
Assay type: in vivo, human
From the text: Cohorts 1, 4, 5, and 6 of the study was comprised of participants with MDD. Cohorts 2, 3, and the relative BA cohort of the study were comprised of normal healthy volunteers (NHV). […] MDD participants had been on a stable dose of antidepressant medication for at least one month prior to screening with an inadequate response to that antidepressant medication as judged by the Investigator, and continued to receive their prescribed antidepressant throughout the course of the study.
Cohorts 4 and 5. For Cohorts 4 and 5, 12 participants each (24 participants total) were randomized in a 3:1 ratio to receive 12 mg of psilocin-d10 or matched placebo in a single dosing session on Day 1. Following a 21-day interval, all participants received a dose of 12 mg psilocin-d10 on Day 22 (second dose for participants originally randomized to psilocin-d10, first dose for participants randomized to placebo), and were followed to Day 42.
Cohort 6. For Cohort 6, 12 participants were randomized in a 3:1 ratio to receive 16 mg of psilocin-d10 or matched placebo in a single dosing session on Day 1. Following a 21-day interval, all participants received a dose of 16 mg psilocin-d10 on Day 22 (second dose for participants originally randomized to psilocin-d10, first dose for participants randomized to placebo), and were followed to Day 42. Given the availability of data and considering that the secondary endpoint was a change in baseline to Day 21 in MADRS, efficacy data presented herein considers the data cut off of Day 21 postdose. One participant had to be withdrawn from the study due to pregnancy.
The primary efficacy endpoint defined in the statistical analysis plan (SAP) is the change from baseline to Day 21 of the total Montgomery-Åsberg Depression Rating Scale (MADRS) score compared to placebo, therefore efficacy data presented herein considers the data cut off of Day 21 postdose. Mean total score and change from baseline on Montgomery-Åsberg Depression Rating Scale (MADRS) on days 1, 10, 17, 22, 31, 38, and 42 are presented as secondary efficacy endpoints.
The secondary objective of the study was to evaluate the efficacy of psilocin-d10 in treating symptoms of MDD as measured by the change from baseline to Day 21 of the MADRS total score in the Intent-to-Treat population, with data analyzed according to the treatment group each participant was randomized to receive. Data from participants in Cohorts 4, 5, and 6 randomized to placebo was pooled for analysis purposes (N=9). Data from participants in Cohorts 4, 5, and 6 randomized to 12 mg or 16 mg psilocin-d10 (N=27) was also pooled for analysis.
Data from the study was also analyzed according to dosage level of psilocin-d10. Data from participants in Cohorts 4, 5, and 6 randomized to placebo was pooled for analysis purposes (N=9). Data from participants in Cohorts 4 and 5 (treated with 12 mg psilocin-d10) was also pooled for analysis (N=18).
The rates of remission, response, and relapse were also evaluated within the study. […] Additionally, 20.8% (5 out of 24) of participants in the psilocin-do group (12 mg and 16 mg combined) were in remission (remitters) (defined as a MADRS score of ≤10) compared to 0% for placebo at Day 21. The same 5 participants who were in remission were also classified as responders. None of the participants relapsed at Day 21 compared to baseline.
The MADRS is a 10-item scale with ratings based on a clinical interview which moves from broadly phrased questions about symptoms to more detailed ones allowing a precise rating of severity. A rating scale from 0 to 6 is employed and the rater must decide whether the rating lies on defined scale steps (0, 2, 4, 6) or between them (1, 3, 5). The MADRS can be used for any time interval between ratings, be it weekly or otherwise, and the time interval should be recorded. […]

[1] = Day 21, 12 mg single dose, Cohorts 4 and 5
[2] = Day 21, 16 mg single dose, Cohort 6
[3] = Day 21, single dose, 12 and 16 mg pooled

[2H]C([2H])([2H])N(C([2H])([2H])[2H])C([2H])([2H])C([2H])([2H])c1c[nH]c2cccc(O)c12 [psilocin-d10, 3-(2-(bis(methyl-d3)amino)ethyl-1,1,2,2-d4)-1H-indol-4-ol]
mean reduction in baseline MADRS (10 days post first dose, 12 mg and 16 mg pooled): 55% | reduction in baseline MADRS (10 days post second dose): 66% | MADRS change from baseline, LS Mean (Std Err) for Day 42 (ANOVA [2], Placebo/active group (one dose Day 22)): −16.48 (3.50) | MADRS change from baseline, LS Mean (Std Err) for Day 42 (ANOVA [2], two doses, 12 and 16 mg pooled): −21.04 (2.24) | MADRS change from baseline, LS Mean (Std Err) for Day 42 (ANOVA [3], within Placebo/active group): −16.54 (2.89) | MADRS change from baseline, LS Mean (ANOVA at Day 21, 12 mg): −16.70 | MADRS change from baseline, LS Mean (ANOVA at Day 21, 16 mg): −15.61 | MADRS change from baseline, LS Mean (ANOVA at Day 42 (by dosage level), Placebo/active group (one dose Day 22)): −16.48 | MADRS change from baseline, LS Mean (ANOVA at Day 42, two 12 mg doses): −19.83 | MADRS change from baseline, LS Mean (ANOVA at Day 42, two 16 mg doses): −23.41 | MADRS change from baseline, LS Mean (Std Err) for Day 21 (ANOVA, 12 and 16 mg pooled): −16.33 (1.30) | MADRS mean total score (Day 10 after single dose (baseline 32.2)): 17.7 | participants in remission (Day 21, 12 mg (3 out of 15)): 20% | participants with response (Day 21, 12 mg (8 out of 15)): 53.3% | participants in remission (MADRS ≤10) (Day 21, 12 mg and 16 mg combined (5 out of 24)): 20.8% | participants with response (≥50% reduction from baseline MADRS) (Day 21, 12 mg and 16 mg combined (12 out of 24)): 50% | MADRS total score, Change from Baseline, Mean [1]: −17.0 | MADRS total score, Change from Baseline, Median [1]: −17.0 | MADRS total score, Observed, Mean [1]: 15.9 | MADRS total score, Observed, Median [1]: 14.0 | participants in remission (Day 21, 16 mg (2 out of 9)): 22.2% | participants with response (Day 21, 16 mg (4 out of 9)): 44.4% | MADRS total score, Change from Baseline, Mean [2]: −14.9 | MADRS total score, Change from Baseline, Median [2]: −17.0 | MADRS total score, Observed, Mean [2]: 16.6 | MADRS total score, Observed, Median [2]: 18.0 | Relapse - No (Day 21, Cohort 4, 12 mg): 7 (100.0) n (%) | Relapse - Yes (Day 21, Cohort 4, 12 mg): 0 (0.0) n (%) | Remission (MADRS ≤10) - Yes (Day 21, Cohort 4, 12 mg): 2 (28.6) n (%) | Remission - No (Day 21, Cohort 4, 12 mg): 5 (71.4) n (%) | Response (≥50% reduction from baseline MADRS) - Yes (Day 21, Cohort 4, 12 mg): 4 (57.1) n (%) | Response - No (Day 21, Cohort 4, 12 mg): 3 (42.9) n (%) | Relapse - No (Day 21, Cohort 5, 12 mg): 8 (100.0) n (%) | Relapse - Yes (Day 21, Cohort 5, 12 mg): 0 (0.0) n (%) | Remission (MADRS ≤10) - Yes (Day 21, Cohort 5, 12 mg): 1 (12.5) n (%) | Remission - No (Day 21, Cohort 5, 12 mg): 7 (87.5) n (%) | Response (≥50% reduction from baseline MADRS) - Yes (Day 21, Cohort 5, 12 mg): 4 (50.0) n (%) | Response - No (Day 21, Cohort 5, 12 mg): 4 (50.0) n (%) | Relapse - No (Day 21, Cohort 6, 16 mg): 9 (100.0) n (%) | Relapse - Yes (Day 21, Cohort 6, 16 mg): 0 (0.0) n (%) | Remission (MADRS ≤10) - Yes (Day 21, Cohort 6, 16 mg): 2 (22.2) n (%) | Remission - No (Day 21, Cohort 6, 16 mg): 7 (77.8) n (%) | Response (≥50% reduction from baseline MADRS) - Yes (Day 21, Cohort 6, 16 mg): 4 (44.4) n (%) | Response - No (Day 21, Cohort 6, 16 mg): 5 (55.6) n (%) | Remission (MADRS ≤10) - Yes (Day 21, Cohorts 4, 5 and 6, pooled 12 mg and 16 mg): 5 (20.8) n (%) | Relapse - No (Day 21, Cohorts 4 and 5, 12 mg): 15 (100.0) n (%) | Relapse - Yes (Day 21, Cohorts 4 and 5, 12 mg): 0 (0.0) n (%) | Remission (MADRS ≤10) - Yes (Day 21, Cohorts 4 and 5, 12 mg): 3 (20.0) n (%) | Remission - No (Day 21, Cohorts 4 and 5, 12 mg): 12 (80.0) n (%) | Response (≥50% reduction from baseline MADRS) - Yes (Day 21, Cohorts 4 and 5, 12 mg): 8 (53.3) n (%) | Response - No (Day 21, Cohorts 4 and 5, 12 mg): 7 (46.7) n (%) | Relapse - No (Day 21, pooled 12 mg and 16 mg): 24 (100.0) n (%) | Relapse - Yes (Day 21, pooled 12 mg and 16 mg): 0 (0.0) n (%) | Remission - No (Day 21, pooled 12 mg and 16 mg): 19 (79.2) n (%) | Response (≥50% reduction from baseline MADRS) - Yes (Day 21, pooled 12 mg and 16 mg): 12 (50.0) n (%) | Response - No (Day 21, pooled 12 mg and 16 mg): 12 (50.0) n (%) | MADRS total score, Change from Baseline, Mean [3]: −16.2 | MADRS total score, Change from Baseline, Median [3]: −17.0 | MADRS total score, Observed, Mean [3]: 16.1 | MADRS total score, Observed, Median [3]: 16.5 | MADRS, Difference in LS Means, 12 mg compared to Cohort 6 (16 mg) (Day 21, 95% CI (−12.2, 10.1), P 0.8421): −1.09 | MADRS, Difference in LS Means, 12 mg compared to placebo (Day 21, 95% CI (−20.5, −7.7), P 0.0001): −14.11 | MADRS, Difference in LS Means, 16 mg compared to placebo (Day 21, 95% CI (−22.3, −3.7), P 0.0080): −12.99 | mean decrease from baseline MADRS (Day 21 after single dose): 50% | MADRS mean total score (Day 31 (10 days post second dose)): 6.7 | Relapse - No (Day 42, Cohort 4, two 12 mg doses): 7 (100.0) n (%)
